What was measured:
GLP-1R = GLP-1R (Homo sapiens, UniProt P43220); test: Agonist activity on GLP-1R, HTRF cAMP detection in stably transfected GLP-1R/HEK293 cells; format: cell-based; conditions: for EC50: 30 min incubation; for Max activity: relative to top concentration of reference GLP-1(7-37)
[1] = Pharmacokinetic study in mice; format: in vivo, CD-1 mice; conditions: for clearance rate compared with PF-06882961 / exposure compared with PF-06882961: mice; for half-life: read-out: T½ (converted); for Vd: read-out: Vdss
Experimental: The pharmacokinetic properties of some compounds of the present invention were evaluated in mice pharmacokinetic experiments. SPF male CD-1 mice from Beijing Vital River Laboratory Animal Technology Co., Ltd were used with 6 mice in each group. Compounds were dissolved in 10% solutol/90% saline. A single intravenous administration was given at a dose of 1 mg/kg in a volume of 1 mL/kg. A single intragastric administration was given at a dose of 5 mg/kg in a volume of 1 mL/kg. Animals were fasted overnight prior to the administration and resumed feeding 4 hours after administration, ad libitum to water. Blood was collected at 0.0830, 0.25, 0.5, 1, 2, 4, 6, 8 and 24 hours after dosing. About […] of whole blood was collected from the saphenous vein of animals and placed in an EDTA-K2 anticoagulation tube. The samples were centrifuged at 4° C. and 4200 rpm for 5 min, and the plasma was transferred into a centrifuge tube and stored at −80° C. until analysis. For plasma sample analysis, the test compounds and internal standards (Labetalol & tolbutamide & Verapamil & dexamethasone & glyburide & Celecoxib) were extracted from mice plasma by protein precipitation method with acetonitrile, and the extracts were analyzed by LC/MS/MS. The measured plasma concentration-time data of individual animals were analyzed with the non-compartmental model of Phoenix WinNonlin 7.0 (Pharsight, USA) software, and the pharmacokinetic parameters of mice were obtained as follows: maximum (peak) plasma drug concentration Cmax; Peak time Tmax; half-life T1/2 and area under the plasma concentration-time curve extrapolated to infinity AUC0-inf.

[2] = Pharmacokinetic study in monkeys; format: in vivo, cynomolgus monkeys; conditions: for half-life: read-out: T½ (converted)
Experimental: The pharmacokinetic properties of compounds of the present invention were evaluated in monkey pharmacokinetic experiments with 3 male Non-naive cynomolgus monkeys per group. Compounds were dissolved in 10% solutol/90% saline. For single intravenous administration, the dose was 1 mg/kg, and the administration volume was 1 mL/kg. For single intragastric administration, the dose was 5 mg/kg, and the administration volume was 1 mL/kg. Animals were fasted overnight with free water before the experiment and resumed feeding 4 hours after administration. Blood was collected at 0.0830, 0.25, 0.5, 1, 2, 4, 6, 8 and 24 hours after dosing. About 0.4 mL of whole blood was collected from the animal's forearm vein and placed in an EDTA-K2 anticoagulant tube. The samples were centrifuged at 4° C. and 4200 rpm for 5 min, and the plasma was transferred to a centrifuge tube and stored at −80° C. until analysis. For plasma sample analysis, the test compounds and internal standards (Labetalol & tolbutamide & Verapamil & dexamethasone & glyburide & Celecoxib) were extracted from monkey plasma by protein precipitation method with acetonitrile, and the extracts were analyzed by LC/MS/MS. Measured plasma concentration-time data in individual animals were analyzed using the non-compartmental model of Phoenix WinNonlin 7.0 (Pharsight, USA) software to obtain the following pharmacokinetic parameters: maximum (peak) plasma drug concentration Cmax; time to peak Tmax; Half-life T1/2 and area under the plasma concentration-time curve extrapolated to infinity AUC0-inf.

cynomolgus monkeys = test: Intravenous glucose tolerance (IVGTT) experiment in cynomolgus monkey; format: in vivo
Experimental: The compounds were dissolved in 10% Solutol HS15+90% Saline by vortex ultrasound. Vehicle was 10% Solutol HS15+90% Saline.
Male cynomolgus monkeys, 10-15 years old, weighing 6-13 kg. Healthy animals were selected for efficacy studies according to alanine aminotransferase (ALT), aspartate aminotransferase (AST), triglyceride (TG), total cholesterol (TC), high density lipoprotein (HDL), low density lipoprotein (LDL), glycosylated hemoglobin (HbA1c), body weight (BW).
After 1 week of acclimation, the IVGTT baseline before administration was measured, and the animals were grouped according to the insulin and blood glucose results of the IVGTT. The detailed information of treatment was as follows:
IVGTT was started after 2 hours post of compound dosing. Blood were collected-at −15 min, 0 min (before sugar administration), and 2, 5, 7, 10, 20, and 30 min after sugar administration. And the blood glucose level were measured.
Data was analyzed by Graphpad Prism 6 and the statistical method was one-way ANOVA Dunnett's test. Compared with the vehicle group, p<0.05 was considered significant difference. * means p<0.05, ** means p<0.01, *** means p<0.001.

[3] = mouse, plasma, male CD-1 mice, 1 mg/kg iv
[4] = mouse, plasma, male CD-1 mice, 1 mg/kg iv, read-out: AUC0-inf
[5] = mouse, plasma, male CD-1 mice, 5 mg/kg po, read-out: AUC0-inf
[6] = mouse, plasma, male CD-1 mice, 5 mg/kg po, read-out: Cmax
[7] = mouse, plasma, male CD-1 mice, 5 mg/kg po
[8] = male cynomolgus monkeys, 1 mg/kg iv
[9] = male cynomolgus monkeys, 5 mg/kg po
[10] = single oral dose of 100 mg/kg, IVGTT 2 hours after dosing
[11] = cynomolgus monkey, plasma, male cynomolgus monkeys, 1 mg/kg iv

Sequence of GLP-1R (P43220 24-463): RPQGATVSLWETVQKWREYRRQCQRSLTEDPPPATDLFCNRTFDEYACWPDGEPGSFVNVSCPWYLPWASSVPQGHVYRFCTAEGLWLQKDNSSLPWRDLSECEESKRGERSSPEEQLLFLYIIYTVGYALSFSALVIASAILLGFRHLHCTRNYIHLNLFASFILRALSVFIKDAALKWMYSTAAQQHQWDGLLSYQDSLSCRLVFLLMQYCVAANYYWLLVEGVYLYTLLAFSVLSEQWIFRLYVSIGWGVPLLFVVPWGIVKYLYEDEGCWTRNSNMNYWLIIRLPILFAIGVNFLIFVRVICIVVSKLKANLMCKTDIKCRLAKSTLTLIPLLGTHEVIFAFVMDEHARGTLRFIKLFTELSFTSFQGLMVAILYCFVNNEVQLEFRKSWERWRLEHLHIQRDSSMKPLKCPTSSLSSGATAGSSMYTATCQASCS

SMILES	EC50 (GLP-1R) [pM]	Max activity (GLP-1R) [%]	F ([1]; male CD-1 mice, 5 mg/kg po) [%]	clearance rate compared with PF-06882961 [1]	exposure compared with PF-06882961 [1]	clearance [1, 3] [mL/min/kg]	AUC(0-inf) [1, 4] [ng·h/mL]	half-life [1, 3] [h]	Vd [1, 3] [L/kg]	AUC(0-inf) [1, 5] [ng·h/mL]	Cmax [1, 6] [ng/mL]	half-life [1, 7] [h]	other results
N#Cc1ccc(OCc2cccc(OC3CCN(Cc4nc5c(F)cc(C(=O)O)cc5n4C[C@@H]4CCO4)CC3)n2)c(F)c1 [Compound 56, (S)-2-((4-((6-((4-cyano-2-fluorophenoxy)methyl)pyridin-2-yl)oxy)piperidin-1-yl)methyl)-4-fluoro-1-(oxetan-2-ylmethyl)-1H-benzo[d]imidazole-6-carboxylic acid]	210	124.9	54.4	lower clearance rates	higher exposure	21.7	771	2.3	1.2	2100	1640	1	
O=C(O)c1cc(F)c2nc(CN3CCC(Oc4cccc(COc5ccc(Cl)cc5F)n4)CC3)n(C[C@@H]3CCO3)c2c1 [Compound C23, (S)-2-((4-((6-((4-chloro-2-fluorophenoxy)methyl)pyridin-2-yl)oxy)piperidin-1-yl)methyl)-4-fluoro-1-(oxetan-2-ylmethyl)-1H-benzo[d]imidazole-6-carboxylic acid]	249	109.1	45.1	lower clearance rates	higher exposure	15	1140	1	1	2580	2190	1.4	
O=C(O)c1ccc2nc(CN3CCC(Oc4cccc(COc5ccc(Cl)cc5F)n4)CC3)n(C[C@@H]3CCO3)c2c1 [Compound 49, (S)-2-((4-((6-((4-chloro-2-fluorophenoxy)methyl)pyridin-2-yl)oxy)piperidin-1-yl)methyl)-1-(oxetan-2-ylmethyl)-1H-benzo[d]imidazole-6-carboxylic acid]	193	129.3	20.7	lower clearance rates	higher exposure	12	1350	1	1	1760	515	3.2	clearance [2, 11]: 7.26 mL/min/kg; AUC(0-inf) ([2]; cynomolgus monkey, plasma, male cynomolgus monkeys, 1 mg/kg iv, read-out: AUC0-inf): 2380 ng·h/mL; half-life [2, 11]: 1.34 h; Vd ([2]; cynomolgus monkey, plasma, male cynomolgus monkeys, 1 mg/kg iv, read-out: Vdss): 0.29 L/kg; AUC(0-inf) ([2]; cynomolgus monkey, plasma, male cynomolgus monkeys, 5 mg/kg po, read-out: AUC0-inf): 1240 ng·h/mL; Cmax ([2]; cynomolgus monkey, plasma, male cynomolgus monkeys, 5 mg/kg po, read-out: Cmax): 235 ng/mL; half-life ([2]; cynomolgus monkey, plasma, male cynomolgus monkeys, 5 mg/kg po): 4.01 h; F [2, 9]: 10.4%; clearance rate compared with PF-06882961 ([2]; monkeys): lower clearance rates; exposure compared with PF-06882961 ([2]; monkeys): higher exposure; half-life compared with PF-06882961 ([2]; monkeys): greater; blood glucose level in IVGTT (cynomolgus monkeys; 60 mg/kg po dose group): significant hypoglycemic effect; effect on blood glucose compared with PF-06882961 (cynomolgus monkeys; 100 mg/kg po, IVGTT): slightly more effective; blood glucose level in IVGTT (cynomolgus monkeys; [10]): significantly lower the blood glucose level
CCn1cncc1Cn1c(CN2CCC(Nc3cccc(COc4ccc(C#N)cc4F)n3)CC2)nc2ccc(C(=O)O)cc21 [Compound C17, 2-((4-((6-((4-cyano-2-fluorophenoxy)methyl)pyridin-2-yl)amino)piperidin-1-yl)methyl)-1-((1-ethyl-1H-imidazol-5-yl)methyl)-1H-benzo[d]imidazole-6-carboxylic acid]	668	127.7											
CCn1cncc1Cn1c(CN2CCC(Oc3cccc(COc4ccc(C#N)cc4F)n3)CC2)nc2ccc(C(=O)O)cc21 [Compound 1, 2-((4-((6-((4-cyano-2-fluorophenoxy)methyl)pyridin-2-yl)oxy)piperidin-1-yl)methyl)-1-((1-ethyl-1H-imidazol-5-yl)methyl)-1H-benzo[d]imidazole-6-carboxylic acid]	88	116.8											

More lines, main results first:

EC50 (GLP-1R) [pM]	Max activity (GLP-1R) [%]	F ([1]; male CD-1 mice, 5 mg/kg po) [%]	clearance rate compared with PF-06882961 [1]	exposure compared with PF-06882961 [1]	clearance [1, 3] [mL/min/kg]	AUC(0-inf) [1, 4] [ng·h/mL]	half-life [1, 3] [h]	Vd [1, 3] [L/kg]	AUC(0-inf) [1, 5] [ng·h/mL]	Cmax [1, 6] [ng/mL]	half-life [1, 7] [h]	SMILES	other results
		19.8										N#Cc1ccc(COc2cccc(C3CCN(Cc4nc5ccc(C(=O)O)cc5n4C[C@@H]4CCO4)CC3)n2)c(F)c1 [PF-06882961, reference compound]	AUC(0-inf) ([1]; male CD-1 mice, 1 mg/kg iv): 370 ng·h/mL; Cl ([1]; male CD-1 mice, 1 mg/kg iv): 45.1 mL/min/kg; T½ ([1]; male CD-1 mice, 1 mg/kg iv): 0.3 h; Vdss ([1]; male CD-1 mice, 1 mg/kg iv): 1 L/kg; AUC(0-inf) ([1]; male CD-1 mice, 5 mg/kg po): 366 ng·h/mL; Cmax ([1]; male CD-1 mice, 5 mg/kg po): 299 ng/mL; T½ ([1]; male CD-1 mice, 5 mg/kg po): 2.0 h; AUC(0-inf) [2, 8]: 1167 ng·h/mL; Cl [2, 8]: 14.4 mL/min/kg; T½ [2, 8]: 1.1 h; Vdss [2, 8]: 0.3 L/kg; AUC(0-inf) [2, 9]: 344 ng·h/mL; Cmax [2, 9]: 58.8 ng/mL; F [2, 9]: 5.9%; T½ [2, 9]: 2.8 h; blood glucose level in IVGTT (cynomolgus monkeys; [10]): significantly lower the blood glucose level
223	121.0											CCn1cncc1Cn1c(CN2CCC(Sc3cccc(COc4ccc(C#N)cc4F)n3)CC2)nc2ccc(C(=O)O)cc21 [Compound C37, 2-((4-((6-((4-cyano-2-fluorophenoxy)methyl)pyridin-2-yl)thio)piperidin-1-yl)methyl)-1-((1-ethyl-1H-imidazol-5-yl)methyl)-1H-benzo[d]imidazole-6-carboxylic acid]	
5850	121.2											CC(C)n1cncc1Cn1c(CN2CCC(Oc3cccc(COc4ccc(Br)cc4F)c3)CC2)nc2ccc(C(=O)O)cc21 [Compound C30, 2-((4-(3-((4-bromo-2-fluorophenoxy)methyl)phenoxy)piperidin-1-yl)methyl)-1-((1-isopropyl-1H-imidazol-5-yl)methyl)-1H-benzo[d]imidazole-6-carboxylic acid]	
5310	88.8											N#Cc1ccc(COc2cccc(Oc3cc(F)c(Cc4nc5c(F)cc(C(=O)O)cc5n4C[C@@H]4CCO4)cc3F)n2)c(F)c1 [Compound C43, (S)-2-(4-((6-((4-cyano-2-fluorobenzyl)oxy)pyridin-2-yl)oxy)-2,5-difluorobenzyl)-4-fluoro-1-(oxetan-2-ylmethyl)-1H-benzo[d]imidazole-6-carboxylic acid]	
